According to PubChem BioAssay AID504680 (Sanford-Burnham Center for Chemical Genomics, 2011):
The source made the active and inactive calls.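 How the source made its calls: active means IC50 below 100 µM in the TR-FRET assay, unless also active in the caspase-3 counter assay; inactive means the rest, including compounds also active in caspase-3.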

Each compound was assayed against Caspase-3 (Homo sapiens) (UniProt P42574) (assay: caspase-3 inhibitors as false-positive filter, SAR follow-up, counter-screen for UBC13 polyubiquitin inhibitor project, biochemical, luminescence, Caspase-Glo 3/7 (AID 504680)). Settings: recombinant caspase-3, Caspase-Glo luminescence, 60 min.
Chain of Caspase-3 (Homo sapiens) (P42574 whole entry, looked up): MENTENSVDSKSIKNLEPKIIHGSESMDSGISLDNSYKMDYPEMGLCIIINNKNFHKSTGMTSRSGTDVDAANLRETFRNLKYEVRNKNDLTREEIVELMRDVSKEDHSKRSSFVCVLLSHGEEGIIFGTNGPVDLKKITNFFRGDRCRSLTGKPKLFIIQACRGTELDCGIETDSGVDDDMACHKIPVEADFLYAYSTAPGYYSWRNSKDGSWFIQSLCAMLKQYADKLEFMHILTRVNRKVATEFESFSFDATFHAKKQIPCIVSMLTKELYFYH

Row | Structure (SMILES) | IC50
1 | Cc1nc2ccccc2c(=O)n1NC(=O)c1ccc(OC(F)F)cc1 | > 100 µM (inactive)
2 | O=C(NCC1CCN(Cc2ccc(F)cc2)CC1)C1CCCN(c2ncnc3c2nc2n3CCCCC2)C1 (centres undefined) | > 100 µM (inactive)
3 | O=C(C1CCN(c2ncnc3c2nc2n3CCCCC2)CC1)N1CCN(c2ccccc2)CC1 | > 100 µM (inactive)
4 | CCCOC(=O)c1ccc(NC(=O)CCCCCN2C(=O)c3ccccc3C2=O)cc1 | > 100 µM (inactive)
5 | COc1ccc(OC)c2sc(N(CCCN(C)C)C(=O)c3ccc(S(=O)(=O)N4CCc5ccccc5C4)cc3)nc12 | > 100 µM (inactive)
6 | CN(C)CCCN(C(=O)c1ccc(S(=O)(=O)N2CCCCC2)cc1)c1nc2cc3c(cc2s1)OCO3 | > 100 µM (inactive)
7 | CCOc1cccc2sc(N(CCCN(C)C)C(=O)c3ccc(S(=O)(=O)N(C)Cc4ccccc4)cc3)nc12 | > 100 µM (inactive)

Further lines, results first:

Row | IC50 | Structure (SMILES)
8 | > 100 µM (inactive) | O=C1c2cccc3cccc(c23)C(=O)N1CC1CCN(CC(O)COc2ccc3ccccc3c2)CC1 (centres undefined)
9 | > 100 µM (inactive) | O=C1c2cccc3cccc(c23)C(=O)N1CCN1CCN(CC(O)COc2ccc(Cl)cc2)CC1 (centres undefined)
10 | > 100 µM (inactive) | COc1ccc(COCC(O)CN2CCC(CN3C(=O)c4cccc5cccc(c45)C3=O)CC2)cc1OC (centres undefined)
11 | > 100 µM (inactive) | CC(NC(=O)CCCCCN1C(=O)c2ccccc2C1=O)c1nc(-c2ccccc2)no1 (centres undefined)
12 | > 100 µM (inactive) | Cc1ccc(OCC(O)CN2CCN(CCN3C(=O)c4cccc5cccc(c45)C3=O)CC2)c(C)c1 (centres undefined)
13 | > 100 µM (inactive) | NNC(=O)c1ccc(CN2C(=O)c3cccc4cccc2c34)cc1
14 | > 100 µM (inactive) | Cc1cc(OCC(O)CN2CCN(CCN3C(=O)c4cccc5cccc(c45)C3=O)CC2)ccc1C(C)C (centres undefined)
